Assay results as given in patent publication US8563505B2, “Hepatitis C virus inhibitors” (priority 2008, dated 2013).

Experiments:
[1] = target: T1, HCV NS3/4A protease complex (Hepatitis C virus genotype 1a, UniProt P27958, C1454S/C1711G); assay: FRET peptide assay to monitor HCV NS3/4A proteolytic activity; type: biochemical; conditions: NS3/4A strain not stated
T1 construct: DNA encoding the recombinant HCV NS3/4A protease complex (amino acids 1027 to 1711) for these strains; inferred from pET21b vector and Ni-NTA purification) (C); made in house; host or cells: Escherichia coli BL21 (DE3), pET21b
T1 sequence (P27958 1027-1711 C1454S/C1711G, one chain of several): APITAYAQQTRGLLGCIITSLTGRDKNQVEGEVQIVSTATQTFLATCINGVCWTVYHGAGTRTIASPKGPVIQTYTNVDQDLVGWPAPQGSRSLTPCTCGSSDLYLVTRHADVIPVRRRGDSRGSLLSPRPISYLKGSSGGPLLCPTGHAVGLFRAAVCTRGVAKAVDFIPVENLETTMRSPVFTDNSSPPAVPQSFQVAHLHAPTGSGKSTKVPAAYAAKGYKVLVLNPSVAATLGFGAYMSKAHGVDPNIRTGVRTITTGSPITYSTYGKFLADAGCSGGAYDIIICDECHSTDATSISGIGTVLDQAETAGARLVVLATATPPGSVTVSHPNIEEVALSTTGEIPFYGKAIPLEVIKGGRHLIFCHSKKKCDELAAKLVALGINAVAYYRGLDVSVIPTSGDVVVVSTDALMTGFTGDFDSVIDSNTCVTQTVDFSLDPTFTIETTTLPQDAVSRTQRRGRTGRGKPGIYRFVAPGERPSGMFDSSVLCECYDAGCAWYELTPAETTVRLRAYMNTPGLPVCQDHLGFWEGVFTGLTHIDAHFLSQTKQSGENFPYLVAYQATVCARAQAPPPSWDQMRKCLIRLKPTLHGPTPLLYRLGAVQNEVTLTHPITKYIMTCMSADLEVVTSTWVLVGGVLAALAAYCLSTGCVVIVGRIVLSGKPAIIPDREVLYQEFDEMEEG
Source text: HCV NS3 protease complexes, derived from the BMS strain, H77 strain or J4L6S strain, were generated, as described below. These purified recombinant proteins were generated for use in a homogeneous assay (see below) to provide an indication of how effective compounds of the present disclosure would be in inhibiting HCV NS3 proteolytic activity.
The H77 and J4L6S strains were used for production of recombinant NS3/4A protease complexes. DNA encoding the recombinant HCV NS3/4A protease complex (amino acids 1027 to 1711) for these strains was manipulated as described by P. Gallinari et al. (see Gallinari P, Paolini C, Brennan D, Nardi C, Steinkuhler C, De Francesco R. Biochemistry. 38(17):5620-32, (1999)). Briefly, a three-lysine solubilizing tail was added at the 3′-end of the NS4A coding region. The cysteine in the P1 position of the NS4A-NS4B cleavage site (amino acid 1711) was changed to a glycine to avoid the proteolytic cleavage of the lysine tag. Furthermore, a cysteine to serine mutation was introduced by PCR at amino acid position 1454 to prevent the autolytic cleavage in the NS3 helicase domain. The variant DNA fragment was cloned in the pET21b bacterial expression vector (Novagen) and the NS3/4A complex was expressed in Escherichia coli strain BL21 (DE3) (Invitrogen) following the protocol described by P. Gallinari et al. (see Gallinari P, Brennan D, Nardi C, Brunetti M, Tomei L, Steinkuhler C, De Francesco R., J Virol. 72(8):6758-69 (1998)) with modifications. Briefly, the NS3/4A protease complex expression was induced with 0.5 millimolar (mM) Isopropyl β-D-1-thiogalactopyranoside (IPTG) for 22 hours (h) at 20° C. A typical fermentation (1 Liter (L)) yielded approximately 10 grams (g) of wet cell paste. The cells were resuspended in lysis buffer (10 mL/g) consisting of 25 mM N-(2-Hydroxyethyl)Piperazine-N′-(2-Ethane Sulfonic acid) (HEPES), pH 7.5, 20% glycerol, 500 mM Sodium Chloride (NaCl), 0.5% Triton X-100, 1 microgram/milliliter ([…]) lysozyme, 5 mM Magnesium Chloride (MgCl2), 1 μg/ml DnaseI, 5 mM […] (βME), Protease inhibitor-Ethylenediamine Tetraacetic acid (EDTA) free (Roche), homogenized and incubated for 20 minutes (min) at 4° C. The homogenate was sonicated and clarified by ultra-centrifugation at 235000 g for 1 hour (h) at 4° C. Imidazole was added to the supernatant to a final concentration of 15 mM and the pH adjusted to 8.0. The crude protein extract was loaded on a Nickel-Nitrilotriacetic acid (Ni-NTA) column pre-equilibrated with buffer B (25 mM HEPES, pH 8.0, 20% glycerol, 500 mM NaCl, 0.5% Triton X-100, 15 mM imidazole, 5 mM βME). The sample was loaded at a flow rate of 1 mL/min. The column was washed with 15 column volumes of buffer C (same as buffer B except with 0.2% Triton X-100). The protein was eluted with 5 column volumes of buffer D (same as buffer C except with 200 mM Imidazole).
NS3/4A protease complex-containing fractions were pooled and loaded on a desalting column Superdex-S200 pre-equilibrated with buffer D (25 mM HEPES, pH 7.5, 20% glycerol, 300 mM NaCl, 0.2% Triton X-100, 10 mM (βME). Sample was loaded at a flow rate of 1 mL/min. NS3/4A protease complex-containing fractions were pooled and concentrated to approximately 0.5 mg/ml. The purity of the NS3/4A protease complexes, derived from the BMS, H77 and J4L6S strains, were judged to be greater than 90% by SDS-PAGE and mass spectrometry analyses. The enzyme was stored at −80° C., thawed on ice and diluted prior to use in assay buffer.
The purpose of this in vitro assay was to measure the inhibition of HCV NS3 protease complexes, derived from the BMS strain, H77 strain or J4L6S strain, as described above, by compounds of the present disclosure. This assay provides an indication of how effective compounds of the present disclosure would be in inhibiting HCV NS3 proteolytic activity.
In order to monitor HCV NS3/4A protease activity, an NS3/4A peptide substrate was used. […]

[2] = test system: HCV replicon in HUH-7 cells; assay: HCV replicon assay (FRET, confirmed by luciferase reporter); type: cell-based, Hepatitis C virus (strain 1b); conditions: Hepatitis C virus, 96 h, HUH-7 replicon cells, 4 days
Source text: An HCV replicon whole cell system was established as described by Lohmann V, Korner F, Koch J, Herian U, Theilmann L, Bartenschlager R., Science 285(5424):110-3 (1999). This system enabled us to evaluate the effects of our HCV Protease compounds on HCV RNA replication. Briefly, using the HCV strain 1b sequence described in the Lohmann paper (Assession number: AJ238799), an HCV cDNA was synthesized by Operon Technologies, Inc. (Alameda, Calif.), and the full-length replicon was then assembled in plasmid pGem9zf(+) (Promega, Madison, Wis.) using standard molecular biology techniques. The replicon consists of (i) the HCV 5′ UTR fused to the first 12 amino acids of the capsid protein, (ii) the neomycin phosphotransferase gene (neo), (iii) the IRES from encephalomyocarditis virus (EMCV), and (iv) HCV NS3 to NS5B genes and the HCV 3′ UTR. Plasmid DNAs were linearized with Seal and RNA transcripts were synthesized in vitro using the T7 MegaScript transcription kit (Ambion, Austin, Tex.) according to manufacturer's directions. In vitro transcripts of the cDNA were transfected into the human hepatoma cell line, HUH-7. […] Resulting cell lines were characterized for positive and negative strand RNA production and protein production over time.
The HCV replicon FRET assay was developed to monitor the inhibitory effects of compounds described in the disclosure on HCV viral replication. HUH-7 cells, constitutively expressing the HCV replicon, were grown in Dulbecco's Modified Eagle Media (DMEM) (Gibco-BRL) containing 10% Fetal calf serum (FCS) (Sigma) and 1 mg/ml G418 (Gibco-BRL). Cells were seeded the night before (1.5×10^4 cells/well) in 96-well tissue-culture sterile plates. Compound and no compound controls were prepared in DMEM containing 4% FCS, 1:100 Penicillin/Streptomysin (Gibco-BRL), 1:100 L-glutamine and 5% DMSO in the dilution plate (0.5% DMSO final concentration in the assay). Compound/DMSO mixes were added to the cells and incubated for 4 days at 37° C. After 4 days, cells were first assessed for cytotoxicity using alamar Blue (Trek Diagnostic Systems) for a CC50 reading. The toxicity of compound (CC50) was determined by adding 1/10th volume of alamar Blue to the media incubating the cells. After 4 h, the fluorescence signal from each well was read, with an excitation wavelength at 530 nm and an emission wavelength of 580 nm, using the Cytofluor Series 4000 (Perspective Biosystems). Plates were then rinsed thoroughly with Phosphate-Buffered Saline (PBS) (3 times 150 μl).
As a secondary assay, EC50 determinations from the replicon FRET assay were confirmed in a replicon luciferase reporter assay. Utilization of a replicon luciferase reporter assay was first described by Krieger et al (Krieger N, Lohmann V, and Bartenschlager R, J. Viral. 75(10):4614-4624 (2001)). The replicon construct described for our FRET assay was modified by inserting cDNA encoding a humanized form of the Renilla luciferase gene and a linker sequence fused directly to the 3′-end of the luciferase gene. This insert was introduced into the replicon construct using an Asc1 restriction site located in core, directly upstream of the neomycin marker gene. The adaptive mutation at position 1179 (serine to isoleucine) was also introduced (Blight K J, Kolykhalov, A A, Rice, C M, Science 290(5498):1972-1974). A stable cell line constitutively expressing this HCV replicon construct was generated as described above. The luciferase reporter assay was set up as described for the HCV replicon FRET assay with the following modifications. Following 4 days in a 37° C./5% CO2 incubator, cells were analyzed for Renilla Luciferase activity using the Promega Dual-Glo Luciferase Assay System. Media (100 μl) was removed from each well containing cells. To the remaining 50 μl of media, 50 μl of Dual-Glo Luciferase Reagent was added, and plates rocked for 10 min to 2 h at room temperature. […]

Compound	IC50 ([1]; numeric values) [nM]	EC50 ([2]; numeric values) [nM]	IC50 ([1]; class symbols) [nM]	EC50 ([2]; class symbols) [nM]
C=C[C@@H]1C[C@]1(NC(=O)[C@@H]1C[C@]2(OC)CN1C(=O)[C@H](C(C)(C)C)NC(=O)OCCCCCCc1ccccc1-c1ccc2cc1)C(=O)NS(=O)(=O)C1CC1 [Example 1]	1	5		
CO[C@@]12C[C@@H](C(=O)N[C@]3(C(=O)NS(=O)(=O)C4CC4)C[C@H]3C3CC3)N(C1)C(=O)[C@H](C(C)(C)C)NC(=O)OCCCCCCc1ccccc1-c1ccc2cc1 [Example 2]	1.5	16		
CO[C@@]12C[C@@H](C(=O)N[C@]3(C(=O)NS(=O)(=O)C4CC4)C[C@H]3C3CC3)N(C1)C(=O)[C@H](C(C)(C)C)NC(=O)OCCC(C)(C)CCCc1ccccc1-c1ccc2cc1 [Example 3]			4 to 7	21 to 30
C=C[C@@H]1C[C@]1(NC(=O)[C@@H]1C[C@]2(OC)CN1C(=O)[C@H](C(C)(C)C)NC(=O)OCCC(C)(C)CCCc1ccccc1-c1ccc2cc1)C(=O)NS(=O)(=O)C1CC1 [Example 4]			1 to 3	11 to 20
CO[C@@]12C[C@@H](C(=O)N[C@]3(C(=O)NS(=O)(=O)C4CC4)C[C@H]3C3CC3)N(C1)C(=O)[C@H](C(C)(C)C)NC(=O)OCC(C)(C)CCCCc1ccccc1-c1ccc2cc1 [Example 5]			4 to 7	11 to 20
C=C[C@@H]1C[C@]1(NC(=O)[C@@H]1C[C@]2(OC)CN1C(=O)[C@H](C(C)(C)C)NC(=O)OCC(C)(C)CCCCc1ccccc1-c1ccc2cc1)C(=O)NS(=O)(=O)C1CC1 [Example 6]			1 to 3	5.5 to 10
CO[C@@]12C[C@@H](C(=O)N[C@]3(C(=O)NS(=O)(=O)C4CC4)C[C@H]3C(F)F)N(C1)C(=O)[C@H](C(C)(C)C)NC(=O)OCC(C)(C)CCCCc1ccccc1-c1ccc2cc1 [Example 7]			1 to 3	5.5 to 10
C=C[C@@H]1C[C@]1(NC(=O)[C@@H]1C[C@]2(OC)CN1C(=O)[C@H](C(C)(C)C)NC(=O)OCCCCc1cc2ccc1-c1ccccc1)C(=O)NS(=O)(=O)C1CC1 [Example 8]			8 to 11	21 to 30
C=C[C@@H]1C[C@]1(NC(=O)[C@@H]1C[C@]2(OC)CN1C(=O)[C@H](C(C)(C)C)NC(=O)OCCCCCc1cc2ccc1-c1ccccc1)C(=O)NS(=O)(=O)C1CC1 [Example 9]	4	26		
COc1ccc2c(c1)CCCCC(C)(C)COC(=O)N[C@@H](C(C)(C)C)C(=O)N1C[C@@](OC)(C[C@H]1C(=O)N[C@]1(C(=O)NS(=O)(=O)C3CC3)C[C@H]1C1CC1)c1ccc-2cc1 [Example 13]			4 to 7	
CO[C@@]12C[C@@H](C(=O)N[C@]3(C(=O)NS(=O)(=O)C4CC4)C[C@H]3C3CC3)N(C1)C(=O)[C@H](C(C)(C)C)NC(=O)OCCCCCc1ccccc1-c1ccc2cc1 [Example 14]			8 to 11	
C=C[C@@H]1C[C@]1(NC(=O)[C@@H]1C[C@]2(OC)CN1C(=O)[C@H](C(C)(C)C)NC(=O)OCCCCCc1ccccc1-c1ccc2cc1)C(=O)NS(=O)(=O)C1CC1 [Example 15]			4 to 7	
CO[C@@]12C[C@@H](C(=O)N[C@]3(C(=O)NS(=O)(=O)C4CC4)C[C@H]3C3CC3)N(C1)C(=O)[C@H](C(C)(C)C)NC(=O)OCC(C)(C)CCCc1ccccc1-c1ccc2cc1 [Example 16]			4 to 7	
CO[C@@]12C[C@@H](C(=O)N[C@]3(C(=O)NS(=O)(=O)C4CC4)C[C@H]3C3CC3)N(C1)C(=O)[C@H](C(C)(C)C)NC(=O)OCCCCCCCc1ccccc1-c1ccc2cc1 [Example 18]			1 to 3	
C=C[C@@H]1C[C@]1(NC(=O)[C@@H]1C[C@]2(OC)CN1C(=O)[C@H](C(C)(C)C)NC(=O)OCCCCCCCc1ccccc1-c1ccc2cc1)C(=O)NS(=O)(=O)C1CC1 [Example 19]			1 to 3	
CO[C@@]12C[C@@H](C(=O)N[C@]3(C(=O)NS(=O)(=O)C4CC4)C[C@H]3C3CC3)N(C1)C(=O)[C@H](C(C)(C)C)NC(=O)OCCCCCCc1ccc(Cl)cc1-c1ccc2cc1 [Example 20]			1 to 3	
CO[C@@]12C[C@@H](C(=O)N[C@]3(C(=O)NS(=O)(=O)C4CC4)C[C@H]3C3CC3)N(C1)C(=O)[C@H](C(C)(C)C)NC(=O)OCCCCc1cccc(c1)-c1cccc2c1 [Example 21]			1 to 3	
CO[C@@]12C[C@@H](C(=O)N[C@]3(C(=O)NS(=O)(=O)C4CC4)C[C@H]3C3CC3)N(C1)C(=O)[C@H](C(C)(C)C)NC(=O)OCC(C)(C)CCCCc1cc(N(C)C)ccc1-c1ccc2cc1 [Example 22]			1 to 3	
